# According to patent US9856216B2, “Compounds as TNIK, IKKε and TBK1 inhibitors and pharmaceutical composition comprising same” (GREEN CROSS CORPORATION, priority 2015, dated 2018):
# Where a name gives a salt, the structure may show the parent alone.
# Biological target: T1, TNIK (Homo sapiens, UniProt Q9UKE5)
# T1 construct: purchased Promega V4158
# Experiment: ADP-Glo Kinase Assay, inhibition activity on TNIK
# Format: biochemical
# Details: read-out: TNIK
# Description: The inhibition activities on TNIK, IKKε and TBK1 were measured by a luminometer, TNIK/IKKε/TBK1 Kinase Enzyme System (Promega, Ca# V4158; Invitrogen, PR8031B, Promega, Ca# V3991) and ADP-Glo Kinase Assay using ADP-Glo™ Kinase Analysis Kit (Promega, Ca# V9101) and a kinase reaction buffer [40 mM Tris(pH 7.5), 20 mM MgCl2, 0.1 mg/mL BSA] in accordance with the manufacturer's protocol.
# T1 sequence (Q9UKE5 1-367 limits assumed): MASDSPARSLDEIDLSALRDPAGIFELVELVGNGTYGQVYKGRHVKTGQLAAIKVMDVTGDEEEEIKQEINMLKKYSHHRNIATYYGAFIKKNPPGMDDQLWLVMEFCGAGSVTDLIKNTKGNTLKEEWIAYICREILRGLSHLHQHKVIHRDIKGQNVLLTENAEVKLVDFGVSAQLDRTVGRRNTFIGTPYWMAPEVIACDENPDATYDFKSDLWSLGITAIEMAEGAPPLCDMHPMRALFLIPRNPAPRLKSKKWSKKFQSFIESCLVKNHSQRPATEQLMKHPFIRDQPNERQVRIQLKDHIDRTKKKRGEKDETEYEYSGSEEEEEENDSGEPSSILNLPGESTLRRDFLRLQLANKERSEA
row,Compound,IC50
1,"O=C(Nc1ccc(-c2ccco2)c2c1C(=O)NC2)c1ccc(NCCN2CCOCC2)cc1 [Example 290, N-(7-(furan-2-yl)-3-oxoisoindolin-4-yl)-4-((2-morpholinoethyl)amino)benzamide]",180 nM
2,"O=C(Nc1ccc(-c2ccco2)c2c1C(=O)NC2)c1ccc(NCCN2CCCCCC2)cc1 [Example 293, 4-((2-(Azepan-1-yl)ethyl)amino)-N-(7-(furan-2-yl)-3-oxoisoindolin-4-yl)benzamide]",480 nM
3,"CN1CCN(CCNc2ccc(C(=O)Nc3ccc(-c4ccco4)c4c3C(=O)NC4)cc2)CC1 [Example 294, N-(7-(furan-2-yl)-3-oxoisoindolin-4-yl)-4-((2-(4-methylpiperazin-1-yl)ethyl)amino)benzamide]",230 nM
4,"CN1CCN(CCCNc2ccc(C(=O)Nc3ccc(-c4ccco4)c4c3C(=O)NC4)cc2)CC1 [Example 295, N-(7-(furan-2-yl)-3-oxoisoindolin-4-yl)-4-((3-(4-methylpiperazin-1-yl)propyl)amino)benzamide]",520 nM
5,"COc1cccc(-c2ccc(NC(=O)c3ccc(NCCCN4CCOCC4)cc3)c3c2CNC3=O)c1OC [Example 296, N-(7-(2,3-dimethoxyphenyl)-3-oxoisoindolin-4-yl)-4-((3-morpholinopropyl)amino)benzamide]",85 nM
6,"COc1cccc(-c2ccc(NC(=O)c3ccc(NCCN4CCOCC4)cc3)c3c2CNC3=O)c1OC [Example 297, N-(7-(2,3-dimethoxyphenyl)-3-oxoisoindolin-4-yl)-4-((2-morpholinoethyl)amino)benzamide]",75 nM
7,"COc1cccc(-c2ccc(NC(=O)c3ccc(NCCN4CCCCC4)cc3)c3c2CNC3=O)c1OC [Example 298, N-(7-(2,3-dimethoxyphenyl)-3-oxoisoindolin-4-yl)-4-((2-(piperidin-1-yl)ethyl)amino)benzamide]",78 nM
8,"COc1cccc(-c2ccc(NC(=O)c3ccc(NCCN4CCCC4)cc3)c3c2CNC3=O)c1OC [Example 299, N-(7-(2,3-dimethoxyphenyl)-3-oxoisoindolin-4-yl)-4-((2-(pyrrolidin-1-yl)ethyl)amino)benzamide]",50 nM
9,"COc1cccc(-c2ccc(NC(=O)c3ccc(NCCN(C)C)cc3)c3c2CNC3=O)c1OC [Example 301, N-(7-(2,3-dimethoxyphenyl)-3-oxoisoindolin-4-yl)-4-((2-(dimethylamino)ethyl)amino)benzamide]",100 nM
10,"COc1cccc(-c2ccc(NC(=O)c3ccc(NCCN4CCCC4)cc3)c3c2CNC3=O)c1OC [Example 304, N-(7-(2,3-dimethoxyphenyl)-3-oxoisoindolin-4-yl)-4-((2-(pyrrolidin-1-yl)ethyl)amino)benzamide hydrochloride]",73 nM
11,"COc1cccc(-c2ccc(NC(=O)c3ccc(NCCCN(C)C)cc3)c3c2CNC3=O)c1OC [Example 306, N-(7-(2,3-dimethoxyphenyl)-3-oxoisoindolin-4-yl)-4-((3-(dimethylamino)propyl)amino)benzamide]",74 nM
12,"COc1ccccc1-c1ccc(NC(=O)c2ccc(NCCCN3CCCCC3)cc2)c2c1CNC2=O [Example 307, N-(7-(2-methoxyphenyl)-3-oxoisoindolin-4-yl)-4-((3-(piperidin-1-yl)propyl)amino)benzamide]",190 nM
13,"COc1cccc(-c2ccc(NC(=O)c3ccc(NCCCN4CCCCC4)cc3)c3c2CNC3=O)c1OC [Example 308, N-(7-(2,3-dimethoxyphenyl)-3-oxoisoindolin-4-yl)-4-((3-(piperidin-1-yl)propyl)amino)benzamide]",53 nM
14,"Cc1cc(NCCN2CCCC2)ccc1C(=O)Nc1ccc(-c2ccccc2)c2c1C(=O)NC2 [Example 309, 2-Methyl-N-(3-oxo-7-phenylisoindolin-4-yl)-4-((2-(pyrrolidin-1-yl)ethyl)amino)benzamide]",4820 nM
15,"COc1cccc(-c2ccc(NC(=O)c3ccc(N4CCOCC4)cc3)c3c2CNC3=O)c1OC [Example 312, N-(7-(2,3-dimethoxyphenyl)-3-oxoisoindolin-4-yl)-4-morpholinobenzamide]",730 nM
16,"COc1c(F)cccc1-c1ccc(NC(=O)c2ccc(NCCN3CCCC3)cc2)c2c1CNC2=O [Example 313, N-(7-(3-fluoro-2-methoxyphenyl)-3-oxoisoindolin-4-yl)-4-((2-(pyrrolidin-1-yl)ethyl)amino)benzamide]",450 nM
17,"COc1cccc(-c2ccc(NC(=O)c3ccc(NCCN4CCN(C)CC4)cc3)c3c2CNC3=O)c1OC [Example 314, N-(7-(2,3-dimethoxyphenyl)-3-oxoisoindolin-4-yl)-4-((2-(4-methylpiperazin-1-yl)ethyl)amino)benzamide]",86 nM
18,"COc1cccc(-c2ccc(NC(=O)c3ccc(NCCCN4CCN(C)CC4)cc3)c3c2CNC3=O)c1OC [Example 316, N-(7-(2,3-dimethoxyphenyl)-3-oxoisoindolin-4-yl)-4-((3-(4-methylpiperazin-1-yl)propyl)amino)benzamide]",57 nM
19,"COc1ccccc1-c1ccc(NC(=O)c2ccc(N3CCOCC3)cc2)c2c1CNC2=O [Example 323, N-(7-(2-methoxyphenyl)-3-oxoisoindolin-4-yl)-4-morpholino benzamide]",370 nM
20,"COc1ccccc1-c1ccc(NC(=O)c2ccc(N3CCN(C)CC3)cc2)c2c1CNC2=O [Example 325, N-(7-(2-methoxyphenyl)-3-oxoisoindolin-4-yl)-4-(4-methylpiperazin-1-yl)benzamide]",370 nM
21,COc1ccccc1-c1ccc(NC(=O)c2ccc(NCCCN3CCOCC3)cc2)c2c1CNC2=O [Example 328],400 nM

# The remaining lines, values ahead:
row,IC50,Compound
1,540 nM,"CN(C)CCNc1ccc(C(=O)Nc2ccc(-c3ccco3)c3c2C(=O)NC3)cc1 [Example 291, 4-((2-(Dimethylamino)ethyl)amino)-N-(7-(furan-2-yl)-3-oxoisoindolin-4-yl)benzamide]"
2,470 nM,"O=C(Nc1ccc(-c2ccco2)c2c1C(=O)NC2)c1ccc(NCCO)cc1 [Example 292, N-(7-(furan-2-yl)-3-oxoisoindolin-4-yl)-4-((2-hydroxyethyl)amino)benzamide]"
3,110 nM,"COCCNc1ccc(C(=O)Nc2ccc(-c3cccc(OC)c3OC)c3c2C(=O)NC3)cc1 [Example 300, N-(7-(2,3-dimethoxyphenyl)-3-oxoisoindolin-4-yl)-4-((2-methoxyethyl)amino)benzamide]"
4,160 nM,"COc1ccccc1-c1ccc(NC(=O)c2ccc(NCCCN3CCCC3)cc2)c2c1CNC2=O [Example 302, N-(7-(2-methoxyphenyl)-3-oxoisoindolin-4-yl)-4-((3-(pyrrolidin-1-yl)propyl)amino)benzamide]"
5,300 nM,"COc1ccccc1-c1ccc(NC(=O)c2ccc(NCCN3CCCC3)cc2)c2c1CNC2=O [Example 303, N-(7-(2-methoxyphenyl)-3-oxoisoindolin-4-yl)-4-((2-(pyrrolidin-1-yl)ethyl)amino)benzamide hydrochloride]"
6,200 nM,"COc1ccccc1-c1ccc(NC(=O)c2ccc(NCCN(C)C)cc2)c2c1CNC2=O [Example 305, 4-((2-(Dimethylamino)ethyl)amino)-N-(7-(2-methoxyphenyl)-3-oxoisoindolin-4-yl)benzamide]"
7,390 nM,"COCCCNc1ccc(C(=O)Nc2ccc(-c3cccnc3OC)c3c2C(=O)NC3)cc1 [Example 310, 4-((3-Methoxypropyl)amino)-N-(7-(2-methoxypyridin-3-yl)-3-oxoisoindolin-4-yl)benzamide]"
8,52 nM,"COc1cccc(-c2ccc(NC(=O)c3ccc(NCCO)cc3)c3c2CNC3=O)c1OC [Example 311, N-(7-(2,3-dimethoxyphenyl)-3-oxoisoindolin-4-yl)-4-((2-hydroxyethyl)amino)benzamide]"
9,37 nM,"COc1cccc(-c2ccc(NC(=O)c3ccc(NCCN)cc3)c3c2CNC3=O)c1OC [Example 315, 4-((2-Aminoethyl)amino)-N-(7-(2,3-dimethoxyphenyl)-3-oxoisoindolin-4-yl)benzamide]"
10,360 nM,"O=C(Nc1ccc(-c2ccccc2)c2c1C(=O)NC2)c1ccc(NCCN2CCCC2)cc1 [Example 317, N-(3-oxo-7-phenylisoindolin-4-yl)-4-((2-(pyrrolidin-1-yl)ethyl)amino)benzamide]"
11,260 nM,"COc1ccccc1-c1ccc(NC(=O)c2ccc(NCCN3CCCC3)cc2)c2c1CNC2=O [Example 318, N-(7-(2-methoxyphenyl)-3-oxoisoindolin-4-yl)-4-((2-(pyrrolidin-1-yl)ethyl)amino)benzamide]"
12,2700 nM,"CN1CCN(c2ccc(C(=O)Nc3ccc(-c4ccccc4)c4c3C(=O)NC4)cc2)CC1 [Example 319, 4-(4-Methylpiperazin-1-yl)-N-(3-oxo-7-phenylisoindolin-4-yl)benzamide]"
13,8800 nM,"O=C(Nc1ccc(-c2ccccc2)c2c1C(=O)NC2)c1ccc(N2CCOCC2)cc1 [Example 320, 4-Morpholino-N-(3-oxo-7-phenylisoindolin-4-yl)benzamide]"
14,500 nM,"COCCNc1ccc(C(=O)Nc2ccc(-c3ccccc3)c3c2C(=O)NC3)cc1 [Example 321, 4-((2-Methoxyethyl)amino)-N-(3-oxo-7-phenylisoindolin-4-yl) benzamide]"
15,340 nM,"O=C(Nc1ccc(-c2ccccc2)c2c1C(=O)NC2)c1ccc(NCCN2CCOCC2)cc1 [Example 322, 4-((2-Morpholinoethyl)amino)-N-(3-oxo-7-phenylisoindolin-4-yl)benzamide]"
16,300 nM,"COCCNc1ccc(C(=O)Nc2ccc(-c3ccccc3OC)c3c2C(=O)NC3)cc1 [Example 324, 4-((2-Methoxyethyl)amino)-N-(7-(2-methoxyphenyl)-3-oxoisoindolin-4-yl)benzamide]"
17,93 nM,COc1ccccc1-c1ccc(NC(=O)c2ccc(NCCN3CCOCC3)cc2)c2c1CNC2=O [Example 326]
18,700 nM,"O=C(Nc1ccc(-c2ccccc2)c2c1C(=O)NC2)c1ccc(NCCCN2CCOCC2)cc1 [Example 327, 4-((3-Morpholinopropyl)amino)-N-(3-oxo-7-phenylisoindolin-4-yl)benzamide]"
